From patent US20240059710A1, “KRAS G12D Inhibitors” (Jacobio Pharmaceuticals Co., Ltd., priority 2020, published 2024)

Experiments:
[1] = molecular target: T1, GDP-loaded HIS-KRAS (G12D, aa 1-169) (Homo sapiens, UniProt P01116, G12D); experiment: SOS1 catalyzed nucleotide exchange assay; assay type: biochemical; conditions: SOS1 ExD, TR-FRET, 4 hours at 25° C.
T1 construct: GDP-loaded HIS-KRAS (G12D, aa 1-169)
Description: 1. SOS1 Catalyzed Nucleotide Exchange Assay
GDP-loaded HIS-KRAS (G12D, aa 1-169) was pre-incubated with a compound in the presence of 10 nM GDP in a 384-well plate (Greiner) for 15 min, then purified SOS1 ExD (Flag tag, aa 564-1049), BODIPY™ FL GTP (Invitrogen) and MAb (monoclonal antibody) Anti 6HIS-Tb cryptate Gold (Cisbio) were added to the assay wells (Final concentration: 1.5 nM GDP-loaded HIS-KRAS (G12D), 5 nM GDP, 0.5 μM SOS1 ExD, 80 nM BODIPY™ FL GTP, 52.5 ng/mL MAb Anti 6HIS-Tb cryptate Gold) and incubated for 4 hours at 25° C. Wells containing same percent of DMSO served as vehicle control, and wells without KRAS served as low control. TR-FRET signals were read on Tecan Spark multimode microplate reader. The parameters were F486: Excitation 340 nm, Emission 486 nm, Lag time 100 μs, Integration time 200 μs; F515: Excitation 340 nm, Emission 515 nm, Lag time 100 μs, Integration time 200 μs. TR-FRET ratios for each individual wells were calculated by equation: TR-FRET ratio=(Signal F515/Signal F486)*10000. The percent of activation of compounds treated wells were normalized between vehicle control and low control (% Activation=(TR-FRET ratioCompound treated−TR-FRET ratioLow control)/(TR-FRET ratioVehicle control−TR-FRET ratioLow control)*100%). Then the data were analyzed either by fitting a 4-parameter logistic model or by Excel to calculate IC50 values.

[2] = molecular target: T2, GppNp-loaded HIS-KRAS (G12D, aa 1-169) / cRAF RBD (Homo sapiens, UniProt P01116, G12D); experiment: GTP-KRAS and cRAF interaction assay; assay type: binding; conditions: HTRF, 2 hours at 25° C.
T2 construct: GppNp-loaded HIS-KRAS (G12D, aa 1-169)
T2 sequence (P01116 1-169 isoform P01116-2 G12D): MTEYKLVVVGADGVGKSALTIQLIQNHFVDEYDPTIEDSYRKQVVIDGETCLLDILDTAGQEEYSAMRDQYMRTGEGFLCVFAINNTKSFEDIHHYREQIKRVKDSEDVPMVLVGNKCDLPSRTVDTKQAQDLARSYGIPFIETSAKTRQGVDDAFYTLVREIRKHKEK
Description: 2. GTP-KRAS and cRAF Interaction Assay
GppNp-loaded HIS-KRAS (G12D, aa 1-169) was pre-incubated with a compound in the presence of 200 µM GTP in a 384-well plate (Greiner) for 15 min, then cRAF RBD (GST tag, aa 50-132, CreativeBioMart), MAb Anti GST-d2 (Cisbio) and MAb Anti 6HIS-Tb cryptate Gold (Cisbio) were added to the assay wells (Final concentration: 2.0 nM GppNp-loaded HIS-KRAS (G12D), 100 μM GTP, 35 nM cRAF RBD, 1 μg/mL MAb Anti GST-d2, 52.5 ng/mL MAb Anti 6HIS-Tb cryptate Gold) and incubated for 2 hours at 25° C. Wells containing same percent of DMSO served as vehicle control, and wells without KRAS served as low control. HTRF signals were read on Tecan Spark multimode microplate reader and HTRF ratios were calculated under manufacturer's instructions. The percent of activation of compounds treated wells were normalized between vehicle control and low control (% Activation=(HTRF ratioCompound treated−HTRF ratioLow control)/(HTRF ratioVehicle control−HTRF ratioLow control)*100). Then the data were analyzed either by fitting a 4-parameter logistic model or by Excel to calculate IC50 values.

T1 sequence (P01116 1-169 isoform P01116-2 G12D): as above

Structure (SMILES)	IC50 [1] [nM]	IC50 [2] [nM]
C#Cc1cccc2cc(O)cc(-c3ccc4c(N5CCNCC5CC#N)nc(OCC5(CN6CCOCC6)CC5)nc4c3F)c12 (racemic) [Compound 134]	117	760
C#Cc1cccc2cc(O)cc(-c3c(Cl)cc4c(N5CC6CCC(C5)N6)nc(OCC5(CN6CCOCC6)CC5)nc4c3F)c12 (single isomer, unassigned) [Compound 35A]	651	–
C#Cc1cccc2cc(O)cc(-c3c(C4CC4)cc4c(N5CC6CCC(C5)N6)nc(OCC5(CN6CCOCC6)CC5)nc4c3F)c12 (single isomer, unassigned) [Compound 38A]	~1000	8300
C#Cc1cccc2cc(O)cc(-c3c(C)cc4c(N5CC6CCC(C5)N6)nc(OCC5(CN6CCOCC6)CC5)nc4c3F)c12 (single isomer, unassigned) [Compound 40A]	92.1	1610
C#Cc1cccc2cc(O)cc(-c3c(F)cc4c(N5CC6CCC(C5)N6)nc(OCC5(CN6CCOCC6)CC5)nc4c3F)c12 (single isomer, unassigned) [Compound 41A]	120	417
C#Cc1cccc2cc(O)cc(-c3c(SC(F)(F)F)cc4c(N5CC6CCC(C5)N6)nc(OCC5(CN6CCOCC6)CC5)nc4c3F)c12 (single isomer, unassigned) [Compound 59A]	> 100	> 1000
C#Cc1cccc2cc(O)cc(-c3c(C#N)cc4c(N5CC6CCC(C5)N6)nc(OCC5(CN6CCOCC6)CC5)nc4c3F)c12 (single isomer, unassigned) [Compound 60A]	766	7690
C#Cc1cccc2cc(O)cc(-c3c(Cl)cc4c(N5CC6CCC(C5)N6)nc(OC[C@@]56CCCN5C[C@H](F)C6)nc4c3F)c12 (single isomer, unassigned) [Compound 72A]	85.9	1480
C#Cc1c(F)ccc2cc(O)cc(-c3c(Cl)cc4c(N5CC6CCC(C5)N6)nc(OCC5(CN6CCOCC6)CC5)nc4c3F)c12 (single isomer, unassigned) [Compound 99A]	101	2070
C#Cc1c(F)ccc2cc(O)cc(-c3c(Cl)cc4c(N5CC6CCC(C5)N6)nc(OCC5(CN6CCOCC6)CC5)nc4c3F)c12 (single isomer, unassigned) [Compound 99B]	0.403	13.5
C#Cc1cccc2cc(O)cc(-c3c(Cl)cc4c(N5CC6CCC(C5)N6)nc(OCC5(CN6CCOCC6)CC5)nc4c3Cl)c12 (single isomer, unassigned) [Compound 107A]	783	> 10000
CCc1cccc2cc(O)cc(-c3c(Cl)cc4c(N5CC6CCC(C5)N6)nc(OCC5(CN6CCOCC6)CC5)nc4c3F)c12 [Compound 36]	32.8	–
Oc1cc(-c2c(Cl)cc3c(N4CC5CCC(C4)N5)nc(OCC4(CN5CCOCC5)CC4)nc3c2F)c2c(Cl)cccc2c1 [Compound 37]	51.4	–
CCc1cccc2cc(O)cc(-c3c(C4CC4)cc4c(N5CC6CCC(C5)N6)nc(OCC5(CN6CCOCC6)CC5)nc4c3F)c12 [Compound 39]	322	1410
C#Cc1cccc2cc(O)cc(-c3ccc4c(N5C[C@H]6C[C@@H]5CN6)nc(OCC5(CN6CCOCC6)CC5)nc4c3F)c12 [Compound 54]	89.8	356
C#Cc1cccc2cc(O)cc(-c3ccc4c(N5C6CNCC5C6)nc(OCC5(CN6CCOCC6)CC5)nc4c3F)c12 [Compound 56]	146	1910
C#Cc1cccc2cc(O)cc(-c3ccc4c(N5CCNC[C@H]5C)nc(OCC5(CN6CCOCC6)CC5)nc4c3F)c12 [Compound 82]	–	> 1000
Oc1cc(Cl)c(C(F)(F)F)c(-c2c(Cl)cc3c(N4CC5CCC(C4)N5)nc(OC[C@@]45CCCN4C[C@H](F)C5)nc3c2F)c1 [Compound 84]	35.4	325
Oc1cc(Cl)c(C(F)(F)F)c(-c2ccc3c(N4CC5CCC(C4)N5)nc(OC[C@@]45CCCN4C[C@H](F)C5)nc3c2F)c1 [Compound 85]	69.1	2210
